pEC50: −log10 of the molar value. Starred links: 1 amine or outer side, 2 acyl side, 3 side chain; linkers in the order of their positions; H or OH if unused. Non-standard residues stand in square brackets, D forms with d. Residues, ends and D or L forms follow the SMILES beside them. Groups on a side chain read outwards from the residue. *: point of attachment. C20 diacid = O=C(O)CCCCCCCCCCCCCCCCCCC(=O)*; αMePhe(2-F) = C[C@](N)(Cc1ccccc1F)C(=O)O; γGlu = O=C(O)[C@H](CCC(=O)[*:2])N[*:1]; αMeL = CC(C)C[C@](C)(N)C(=O)O; AEEA = NCCOCCOCC(=O)O; Ac3c = NC1(C(=O)O)CC1; Aib = CC(C)(N)C(=O)O
Assays:
[1] = test system: C57 BL/6J DIO mice; assay: In vivo pharmacodynamics in high-fat diet induced obesity (DIO) mice; parameters: species or system mouse; details: Table 9-2; 3 nmol/kg; Day 15; Mean±SEM
Excerpt: High-fat diet induced obesity (DIO) mice have characteristics such as obesity, elevated blood sugar, insulin resistance, and lipid abnormalities, all of which are very significant metabolic syndromes similar to a human body. The effects of the compounds of the present application on body weight, food intake, blood sugar, and lipids in C57 BL/6J DIO mice were studied.
Obesity was induced in mice by feeding with a high-fat diet (60 kcal % of calories from fat). […] After grouping, one animal was raised in each cage for one week, during which each of the animals was injected subcutaneously (S.C.) with a solvent (1×PBS, 5 ml/kg) to pre-adapt the experimental operation process.
After the preparation of animals, vehicle control or compounds were administered to groups of animals by subcutaneous injection, in which the compounds were dissolved in 1×PBS, the dosage was 5 ml/kg, and the administration operation was started at 9:00 am and conducted once every three days (Q3D) for 15 days. Throughout the entire experimental study, animal weight and food intake were measured daily before administration, and compared with initial weight and food intake of the same animal before administration to calculate a percentage change in animal weight (%) and cumulative food intake, so as to evaluate the impact of compounds on changes in body weight and food intake.
At the end point of the experiment (Day 15), the body weight of the mice was measured, and then fasting blood glucose was measured by taking blood from the tail tip of broken tail without anesthesia. After the blood collection, the animals were anesthetized with CO2 and euthanized. Then, blood was taken from the heart and plasma was separated by centrifugation. The plasma was used to measure total cholesterol (TC), low-density lipoprotein cholesterol (LDL-C), triglycerides (TG), and blood insulin content. The liver was separated for homogenization, and then centrifuged to obtain the supernatant for determining triglyceride content in the liver.
All results were expressed in Mean±SEM, and the results were analyzed by one-way ANOVA using GraphPad Prism 5 software, followed by Dunnett's post hoc test compared to the Vehicle control group. The difference at the p<0.05 level was considered statistically significant.

[2] = target: T1, Human GIP R (Homo sapiens, UniProt P48546); assay: cAMP (HTRF) activity in CHO cells stably overexpressing GIP receptor; assay type: cell-based; details: for Human GIP R Rel. A (Relative Activity): EC50 of human GIP / EC50 of compound; for pEC50: stable transfected cell cAMP activity, at least 3 independent tests
T1 construct: expressed in transfected cells; host or cells: CHO
T1 sequence (P48546 22-466): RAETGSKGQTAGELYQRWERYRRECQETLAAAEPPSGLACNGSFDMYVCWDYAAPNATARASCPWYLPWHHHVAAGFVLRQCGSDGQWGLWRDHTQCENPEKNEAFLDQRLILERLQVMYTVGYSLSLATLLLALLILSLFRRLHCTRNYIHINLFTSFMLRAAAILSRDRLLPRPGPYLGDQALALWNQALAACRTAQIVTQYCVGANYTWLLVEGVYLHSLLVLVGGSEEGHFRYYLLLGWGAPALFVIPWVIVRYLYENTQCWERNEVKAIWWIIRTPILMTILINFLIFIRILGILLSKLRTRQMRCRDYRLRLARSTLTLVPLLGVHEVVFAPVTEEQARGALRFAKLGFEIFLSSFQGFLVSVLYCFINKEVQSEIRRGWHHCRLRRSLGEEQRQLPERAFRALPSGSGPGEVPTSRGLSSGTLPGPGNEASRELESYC
Summary of the method: (§1)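 Cells in HBSS are exposed to compound for 60 min at room temperature, followed by 60 min with detection reagent. EC50 (nM) is taken from concentration-response curves.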

[3] = test system: RIN-m5F cells; assay type: cell-based, rat; details: for Rel. A (Relative Activity) on RIN-m5F: relative to GLP-1(7-37)
Summary of the method: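 cAMP production measured in RIN-m5F cells resuspended in HBSS; compounds incubated 60 min at room temperature, then detection reagent added for a further 60 min before read-out.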

[4] = target: Human GLP-1R (Homo sapiens, UniProt P43220); assay: cAMP (HTRF) activity in HEK-293 cells stably overexpressing human GLP-1 receptor; assay type: cell-based; parameters: expressed in transfected cells; host or cells: HEK-293; details: for Human GLP-1R Rel. A (Relative Activity): EC50 of human GLP-1 (7-37) / EC50 of compound
Summary of the method: as §1

[5] = target: T2, Human GCG R (Homo sapiens, UniProt P47871); assay: cAMP (HTRF) activity in HEK-293 cells stably overexpressing human GCG receptor; assay type: cell-based; details: EC50 of human GCG / EC50 of compound
T2 construct: expressed in transfected cells; host or cells: HEK-293
Summary of the method: as §1

[6] = test system: human primary liver cells; assay type: cell-based; details: for Rel. A (Relative Activity) on human primary liver cells: relative to GCG
Summary of the method: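 Human primary hepatocytes, thawed at 37° C and resuspended in HBSS, exposed to compound for 60 min at room temperature. Detection reagent then added for 60 min before cAMP readout.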

[7] = test system: 3T3-L1 adipocytes; details: for Rel. A (Relative Activity) on 3T3-L1 adipocyte: relative to GIP
Summary of the method: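 Mouse 3T3-L1 preadipocytes were differentiated with IBMX, dexamethasone and insulin for 5 days, then insulin plus 10 uM rosiglitazone for 3 days, then 10% FBS medium for 2–3 days. Mature adipocytes received 10-point, 3-fold compound dilutions for 60 min at room temperature. cAMP was read by kit detection reagent after a further 60 min, with concentration-effect curves fitted.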

T2 sequence (P47871 26-477): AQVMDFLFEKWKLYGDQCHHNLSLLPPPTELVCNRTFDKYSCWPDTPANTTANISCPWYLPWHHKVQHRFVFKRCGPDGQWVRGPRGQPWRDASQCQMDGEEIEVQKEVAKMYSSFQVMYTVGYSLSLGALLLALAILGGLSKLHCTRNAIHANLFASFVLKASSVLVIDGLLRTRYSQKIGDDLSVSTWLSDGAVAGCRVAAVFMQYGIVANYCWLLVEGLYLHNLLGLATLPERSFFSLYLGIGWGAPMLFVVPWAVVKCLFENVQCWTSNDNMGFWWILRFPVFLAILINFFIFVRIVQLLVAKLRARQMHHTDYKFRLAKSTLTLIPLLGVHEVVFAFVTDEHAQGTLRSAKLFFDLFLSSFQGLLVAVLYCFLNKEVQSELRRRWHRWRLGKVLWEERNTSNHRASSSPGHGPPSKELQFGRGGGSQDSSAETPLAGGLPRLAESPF
Sequence of Human GLP-1R (P43220 24-463): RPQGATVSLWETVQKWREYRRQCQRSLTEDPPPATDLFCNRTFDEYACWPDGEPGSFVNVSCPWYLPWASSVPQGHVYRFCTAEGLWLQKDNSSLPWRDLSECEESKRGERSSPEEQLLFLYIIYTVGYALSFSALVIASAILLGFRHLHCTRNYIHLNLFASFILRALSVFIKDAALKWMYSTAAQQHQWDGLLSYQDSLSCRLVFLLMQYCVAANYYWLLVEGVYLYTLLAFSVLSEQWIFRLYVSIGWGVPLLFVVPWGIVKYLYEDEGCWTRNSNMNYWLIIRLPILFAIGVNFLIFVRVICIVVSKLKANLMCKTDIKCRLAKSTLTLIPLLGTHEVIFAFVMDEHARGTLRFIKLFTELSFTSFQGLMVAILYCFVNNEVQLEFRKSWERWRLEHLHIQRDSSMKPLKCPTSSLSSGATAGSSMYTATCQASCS

Human GIP R Rel. A (Relative Activity) [2] | pEC50 [3] | Human GLP-1R Rel. A (Relative Activity) [4] | pEC50 ([4]; stable transfected cell cAMP activity, at least 3 independent tests) | Human GCG R Rel. A (Relative Activity) [5] | pEC50 [6] | pEC50 [2] | Structure (SMILES) | Liver TG [1] | Rel. A (Relative Activity) on RIN-m5F [3] | Rel. A (Relative Activity) on human primary liver cells [6] | pEC50 [7] | Rel. A (Relative Activity) on 3T3-L1 adipocyte [7]
150.83% | 9.80 | 275.00% | 10.80 | 34.13% | 8.97 | – | CC[C@H](C)[C@H](NC(=O)[C@H](Cc1ccccc1)NC(=O)[C@H](C)NC(=O)C(C)(C)NC(=O)[C@H](CCC(N)=O)NC(=O)[C@H](C)NC(=O)[C@H](CCCCNC(=O)COCCOCCNC(=O)COCCOCCNC(=O)CC[C@H](NC(=O)CCCCCCCCCCCCCCCCCCC(=O)O)C(=O)O)NC(=O)[C@H](CCCCN)NC(=O)[C@H](CC(=O)O)NC(=O)[C@H](CC(C)C)NC(=O)[C@](C)(CC(C)C)NC(=O)[C@@H](NC(=O)[C@H](CO)NC(=O)[C@H](Cc1ccc(O)cc1)NC(=O)[C@H](CC(=O)O)NC(=O)[C@H](CO)NC(=O)[C@@H](NC(=O)[C@](C)(Cc1ccccc1F)NC(=O)[C@@H](NC(=O)CNC(=O)[C@H](CCC(N)=O)NC(=O)C(C)(C)NC(=O)[C@@H](N)Cc1ccc(O)cc1)[C@@H](C)O)[C@@H](C)O)[C@@H](C)CC)C(=O)N[C@@H](CCC(=O)O)C(=O)N[C@@H](Cc1ccccc1)C(=O)N[C@@H](CC(C)C)C(=O)N[C@@H](CC(C)C)C(=O)N[C@@H](CCC(=O)O)C(=O)N[C@@H](CO)C(=O)N[C@@H](Cc1c[nH]cn1)C(=O)N1CCC[C@H]1C(=O)N[C@@H](CO)C(=O)N[C@@H](CO)C(=O)NC(C)(C)C(=O)N[C@@H](Cc1c[nH]cn1)C(=O)N1CCC[C@H]1C(=O)N1CCC[C@H]1C(=O)NC1(C(=O)N[C@@H](CO)C(N)=O)CC1 [Compound 40] (H-Y[Aib]QGT[αMePhe(2-F)]TSDYSI[αMeL]LDKK([AEEA-AEEA-γGlu-C20 diacid])AQ[Aib]AFIEFLLESHPSS[Aib]HPP[Ac3c]S-NH2) | 42.1 ± 5.22 mg | 645.00% | 364.33% | 8.59 | 148.46%
1392.31% | 9.69 | 141.94% | – | 167.65% | 9.19 | 10.89 | CC[C@H](C)[C@H](NC(=O)[C@H](Cc1ccccc1)NC(=O)[C@H](C)NC(=O)C(C)(C)NC(=O)[C@H](CCC(N)=O)NC(=O)[C@H](C)NC(=O)[C@H](CCCCNC(=O)COCCOCCNC(=O)COCCOCCNC(=O)CC[C@H](NC(=O)CCCCCCCCCCCCCCCCCCC(=O)O)C(=O)O)NC(=O)[C@H](CCCCN)NC(=O)[C@H](CC(=O)O)NC(=O)[C@H](CC(C)C)NC(=O)[C@](C)(CC(C)C)NC(=O)[C@@H](NC(=O)[C@H](CO)NC(=O)[C@H](Cc1ccc(O)cc1)NC(=O)[C@H](CC(=O)O)NC(=O)[C@H](CO)NC(=O)[C@@H](NC(=O)[C@](C)(Cc1ccccc1F)NC(=O)[C@@H](NC(=O)CNC(=O)[C@H](CCC(N)=O)NC(=O)C(C)(C)NC(=O)[C@@H](N)Cc1ccc(O)cc1)[C@@H](C)O)[C@@H](C)O)[C@@H](C)CC)C(=O)N[C@@H](CCC(=O)O)C(=O)N[C@@H](Cc1ccccc1)C(=O)N[C@@H](CC(C)C)C(=O)N[C@@H](CC(C)C)C(=O)N[C@@H](CCC(=O)O)C(=O)NCC(=O)N[C@@H](CCCNC(=N)N)C(=O)N1CCC[C@H]1C(=O)N[C@@H](CO)C(=O)N[C@@H](CO)C(=O)NC(C)(C)C(=O)N[C@@H](Cc1c[nH]cn1)C(=O)N1CCC[C@H]1C(=O)N1CCC[C@H]1C(=O)N1CCC[C@H]1C(=O)N[C@@H](CO)C(N)=O [Compound 25] | – | 510.89% | 599.54% | 9.04 | 414.16%
1206.67% | 9.07 | 56.41% | – | 37.25% | 8.69 | 10.82 | CC[C@H](C)[C@H](NC(=O)[C@H](Cc1ccccc1)NC(=O)[C@H](C)NC(=O)C(C)(C)NC(=O)[C@H](CCC(N)=O)NC(=O)[C@H](C)NC(=O)[C@H](CCCCNC(=O)COCCOCCNC(=O)COCCOCCNC(=O)CC[C@H](NC(=O)CCCCCCCCCCCCCCCCCCC(=O)O)C(=O)O)NC(=O)[C@H](CCCCN)NC(=O)[C@H](CC(=O)O)NC(=O)[C@H](CC(C)C)NC(=O)[C@](C)(CC(C)C)NC(=O)[C@@H](NC(=O)[C@H](CO)NC(=O)[C@H](Cc1ccc(O)cc1)NC(=O)[C@H](CC(=O)O)NC(=O)[C@H](CO)NC(=O)[C@@H](NC(=O)[C@](C)(Cc1ccccc1F)NC(=O)[C@@H](NC(=O)CNC(=O)[C@H](CCC(N)=O)NC(=O)C(C)(C)NC(=O)[C@@H](N)Cc1ccc(O)cc1)[C@@H](C)O)[C@@H](C)O)[C@@H](C)CC)C(=O)N[C@@H](CCC(=O)O)C(=O)N[C@@H](Cc1ccccc1)C(=O)N[C@@H](CC(C)C)C(=O)N[C@@H](CC(C)C)C(=O)N[C@@H](CCC(=O)O)C(=O)N[C@H](C(=O)N[C@@H](CCCNC(=N)N)C(=O)N1CCC[C@H]1C(=O)N[C@@H](CO)C(=O)N[C@@H](CO)C(=O)NC(C)(C)C(=O)N[C@@H](Cc1c[nH]cn1)C(=O)N1CCC[C@H]1C(=O)N1CCC[C@H]1C(=O)N1CCC[C@H]1C(=O)N[C@@H](CO)C(N)=O)[C@@H](C)O [Compound 39] (H-Y[Aib]QGT[αMePhe(2-F)]TSDYSI[αMeL]LDKK([AEEA-AEEA-γGlu-C20 diacid])AQ[Aib]AFIEFLLETRPSS[Aib]HPPPS-NH2) | – | 122.42% | 191.77% | 8.69 | 185.83%

From US20250129135A1, “Multi-Agonist and Use Thereof” (priority 2021, published 2025)
